Measured values: patent EP0500835B1, “A NOVEL QUINOLONE CARBOXYLIC ACID DERIVATIVE” (DAEWOONG PHARMACEUTICAL CO., LTD., priority 1990, dated 1992)
Converted amounts (≈) assume the structure as drawn. Where two headings read alike, the source gives them in different places.

Assays:
Format in all cases: cell-based
E. coli 1507E = assay: In vitro antibacterial activity, MIC by agar dilution method; details: Escherichia coli, read-out: In vitro Antibacterial Activity, MIC
Description: (§1) The typical examples of the present compounds were tested for antimicrobial activity in vitro against twenty strains of Gram-positive and Gram-negative microorganisms.
(§2) The numerals in the table 1 show minimum inhibitory concentrations(MIC in µg/ml). The minimum inhibitory concentrations were determined according to the agar dilution method recommended by Japan Society of Chemotherapy[Chemotherapy., 29, 76 (1981)].

E. coli DC 0 = assay: as above; details: Escherichia coli, DC0, read-out: In vitro Antibacterial Activity, MIC
Description: as §1, §2

E. coli DC 2 = assay: as above; details: Escherichia coli
Description: as §1, §2

E. coli TEM = assay: as above; details: Escherichia coli, read-out: In vitro Antibacterial Activity, MIC
Description: as §1, §2

K. oxytoca 1082E = assay: as above; details: Klebsiella oxytoca, read-out: In vitro Antibacterial Activity, MIC
Description: as §1, §2

P. aeruginosa 1592E = assay: as above; details: Pseudomonas aeruginosa, 1592E, read-out: In vitro Antibacterial Activity, MIC
Description: as §1, §2

P. aeruginosa 1771M = assay: as above; details: Pseudomonas aeruginosa, read-out: In vitro Antibacterial Activity, MIC
Description: as §1, §2

P. aeruginosa 1771 = assay: as above; details: Pseudomonas aeruginosa, 1771, read-out: In vitro Antibacterial Activity, MIC
Description: as §1, §2

P. aeruginosa 9027 = assay: as above
Description: as §1, §2

S. aureus 285 = assay: as above; details: Staphylococcus aureus, 285, read-out: In vitro Antibacterial Activity, MIC
Description: as §1, §2

S. aureus 503 = assay: as above; details: Staphylococcus aureus, 503, read-out: In vitro Antibacterial Activity, MIC
Description: as §1, §2

S. aureus SG 511 = assay: as above; details: Staphylococcus aureus, SG511, read-out: In vitro Antibacterial Activity, MIC
Description: as §1, §2

S. faecium MD 86 = assay: as above; details: Enterococcus faecium
Description: as §1, §2

S. pyogenes A 308 = assay: as above; details: Streptococcus pyogenes
Description: as §1, §2

S. pyogenes A 77 = assay: as above; details: Streptococcus pyogenes, A77, read-out: In vitro Antibacterial Activity, MIC
Description: as §1, §2

E. cloacae 1321E = assay: as above; details: Enterobacter cloacae, 1321E, read-out: In vitro Antibacterial Activity, MIC
Description: as §1
(§3) The minimum inhibitory concentrations were determined according to the agar dilution method recommended by Japan Society of Chemotherapy[Chemotherapy., 29, 76 (1981)].

E. cloacae P99 = assay: as above; details: Enterobacter cloacae, P99, read-out: In vitro Antibacterial Activity, MIC
Description: as §1, §3

E. coli O 55 = assay: as above; details: Escherichia coli, O55, read-out: In vitro Antibacterial Activity, MIC
Description: as §1, §3

K. aerogenes 1522E = assay: as above; details: Klebsiella aerogenes, 1522E, read-out: In vitro Antibacterial Activity, MIC
Description: as §1, §3

S. typhimurium = assay: as above; details: Salmonella enterica, TYPHIMURIUM, read-out: In vitro Antibacterial Activity, MIC
Description: as §1, §3

[1] = tested on: Saphylococcus aureus 692E; assay: Antibacterial activity for MRSA; details: Saphylococcus aureus 692E (MRSA)
Description: (§4) The compound of example 2 was orally administered to determine the LD50 for a group of male mice. […] The antibacterial activity for MRSA(Methicillin Resistant Staphyloccocus Aureus) was tested by the compound of example 2.

[2] = tested on: Staphylococcus aureus 121E; assay: Antibacterial activity for MRSA; details: Staphylococcus aureus 121E (MRSA)
Description: as §4

[3] = tested on: Staphylococcus aureus 208E; assay: Antibacterial activity for MRSA; details: Staphylococcus aureus 208E (MRSA)
Description: as §4

[4] = tested on: Staphylococcus aureus 256E; assay: Antibacterial activity for MRSA; details: Staphylococcus aureus 256E (MRSA)
Description: as §4

[5] = tested on: Staphylococcus aureus 690E; assay: Antibacterial activity for MRSA; details: Staphylococcus aureus 690E (MRSA)
Description: as §4

[6] = tested on: Staphylococcus aureus 693E; assay: Antibacterial activity for MRSA; details: Staphylococcus aureus 693E (MRSA)
Description: as §4

[7] = tested on: Staphylococcus aureus 694E; assay: Antibacterial activity for MRSA; details: Staphylococcus aureus 694E (MRSA)
Description: as §4

[8] = tested on: Staphylococcus aureus 695E; assay: Antibacterial activity for MRSA; details: Staphylococcus aureus 695E (MRSA)
Description: as §4

[9] = tested on: Staphylococcus aureus 697E; assay: Antibacterial activity for MRSA; details: Staphylococcus aureus 697E (MRSA)
Description: as §4

[10] = tested on: Staphylococcus aureus 701E; assay: Antibacterial activity for MRSA; details: Staphylococcus aureus 701E (MRSA)
Description: as §4

[11] = tested on: Staphylococcus aureus 703E; assay: Antibacterial activity for MRSA; details: Staphylococcus aureus 703E (MRSA)
Description: as §4

[12] = tested on: Staphylococcus aureus 705E; assay: Antibacterial activity for MRSA; details: Staphylococcus aureus 705E (MRSA)
Description: as §4

[13] = tested on: Staphylococcus aureus 706E; assay: Antibacterial activity for MRSA; details: Staphylococcus aureus 706E (MRSA)
Description: as §4

[14] = tested on: Staphylococcus aureus 707E; assay: Antibacterial activity for MRSA; details: Staphylococcus aureus 707E (MRSA)
Description: as §4

[15] = tested on: Staphylococcus aureus 708E; assay: Antibacterial activity for MRSA; details: Staphylococcus aureus 708E (MRSA)
Description: as §4

[16] = tested on: Staphylococcus aureus 711E; assay: Antibacterial activity for MRSA; details: Staphylococcus aureus 711E (MRSA)
Description: as §4

[17] = tested on: Staphylococcus aureus 714E; assay: Antibacterial activity for MRSA; details: Staphylococcus aureus 714E (MRSA)
Description: as §4

[18] = tested on: Staphylococcus aureus 752E; assay: Antibacterial activity for MRSA; details: Staphylococcus aureus 752E (MRSA)
Description: as §4

[19] = tested on: Staphylococcus aureus 88 E; assay: Antibacterial activity for MRSA; details: Staphylococcus aureus 88 E (MRSA)
Description: as §4

## CSCC1CCN(c2c(F)c(F)c3c(=O)c(C(=O)O)cn(C4CC4)c3c2F)C1 (stereo not drawn) [Example 3, 1-cyclpropyl-5,6,8-trifluoro-7-(3-methylthiomethylpyrrolidinyl)-1,4-dihydro-4-oxo-3-quinolinecarboxylic acid]
E. coli 1507E; 1507E
  MIC: 3.12 µg/mL (≈ 7.58 µM)
E. coli DC 0
  MIC: 6.25 µg/mL (≈ 15.2 µM)
E. coli DC 2; DC2, read-out: In vitro Antibacterial Activity, MIC
  MIC: 3.12 µg/mL (≈ 7.58 µM)
E. coli TEM
  MIC: 3.12 µg/mL (≈ 7.58 µM)
K. oxytoca 1082E; 1082E
  MIC: 0.098 µg/mL (≈ 0.238 µM)
P. aeruginosa 1592E
  MIC: 3.12 µg/mL (≈ 7.58 µM)
P. aeruginosa 1771M; 1771M
  MIC: 1.56 µg/mL (≈ 3.79 µM)
P. aeruginosa 1771
  MIC: 1.56 µg/mL (≈ 3.79 µM)
P. aeruginosa 9027; Pseudomonas aeruginosa, 9027, read-out: In vitro Antibacterial Activity, MIC
  MIC: 3.12 µg/mL (≈ 7.58 µM)
S. aureus 285
  MIC: 0.013 µg/mL (≈ 0.0315 µM)
S. aureus 503
  MIC: 0.007 µg/mL (≈ 0.017 µM)
S. aureus SG 511
  MIC: 0.008 µg/mL (≈ 0.0194 µM)
S. faecium MD 86; MD86, read-out: In vitro Antibacterial Activity, MIC
  MIC: 0.781 µg/mL (≈ 1.89 µM)
S. pyogenes A 308; A308, read-out: In vitro Antibacterial Activity, MIC
  MIC: 0.781 µg/mL (≈ 1.89 µM)
S. pyogenes A 77
  MIC: 1.56 µg/mL (≈ 3.79 µM)
E. cloacae 1321E
  MIC: 0.391 µg/mL (≈ 0.948 µM)
E. cloacae P99
  MIC: 0.391 µg/mL (≈ 0.948 µM)
E. coli O 55
  MIC: 0.195 µg/mL (≈ 0.473 µM)
K. aerogenes 1522E
  MIC: 0.781 µg/mL (≈ 1.89 µM)
S. typhimurium
  MIC: 0.391 µg/mL (≈ 0.948 µM)

## O=C(O)c1cn(C2CC2)c2cc(N3CCNCC3)c(F)cc2c1=O [CIP, Ciprofloxacin, reference compound]
E. coli 1507E; E. coli 1507E, agar dilution method
  MIC: 0.049 µg/mL (≈ 0.148 µM)
E. coli DC 0
  MIC: 0.195 µg/mL (≈ 0.589 µM)
E. coli DC 2; DC2, E. coli DC 2, agar dilution method, read-out: In vitro Antibacterial Activity, MIC
  MIC: 0.098 µg/mL (≈ 0.296 µM)
E. coli TEM; E. coli TEM, agar dilution method
  MIC: 0.098 µg/mL (≈ 0.296 µM)
K. oxytoca 1082E; K. oxytoca 1082E, agar dilution method
  MIC: 0.002 µg/mL (≈ 0.00604 µM)
P. aeruginosa 1592E
  MIC: 0.195 µg/mL (≈ 0.589 µM)
P. aeruginosa 1771M; P. aeruginosa 1771M, agar dilution method
  MIC: 0.049 µg/mL (≈ 0.148 µM)
P. aeruginosa 1771
  MIC: 0.195 µg/mL (≈ 0.589 µM)
P. aeruginosa 9027; Pseudomonas aeruginosa, P. aeruginosa 9027, agar dilution method, read-out: In vitro Antibacterial Activity, MIC
  MIC: 0.098 µg/mL (≈ 0.296 µM)
S. aureus 285
  MIC: 0.195 µg/mL (≈ 0.589 µM)
S. aureus 503
  MIC: 0.391 µg/mL (≈ 1.18 µM)
S. aureus SG 511
  MIC: 0.195 µg/mL (≈ 0.589 µM)
S. faecium MD 86; MD86, S. faecium MD 86, agar dilution method, read-out: In vitro Antibacterial Activity, MIC
  MIC: 0.781 µg/mL (≈ 2.36 µM)
S. pyogenes A 308; A308, S. pyogenes A 308, agar dilution method, read-out: In vitro Antibacterial Activity, MIC
  MIC: 1.56 µg/mL (≈ 4.72 µM)
S. pyogenes A 77
  MIC: 0.195 µg/mL (≈ 0.589 µM)
[1]
  Antibacterial Activity for MRSA: 0.195 µg/mL
[2]
  Antibacterial Activity for MRSA: 0.391 µg/mL
[3]
  Antibacterial Activity for MRSA: 0.195 µg/mL
[4]
  Antibacterial Activity for MRSA: 0.391 µg/mL
[5]
  Antibacterial Activity for MRSA: 0.195 µg/mL
[6]
  Antibacterial Activity for MRSA: 0.391 µg/mL
[7]
  Antibacterial Activity for MRSA: 0.391 µg/mL
[8]
  Antibacterial Activity for MRSA: 0.391 µg/mL
[9]
  Antibacterial Activity for MRSA: 0.195 µg/mL
[10]
  Antibacterial Activity for MRSA: 0.391 µg/mL
[11]
  Antibacterial Activity for MRSA: 0.195 µg/mL
[12]
  Antibacterial Activity for MRSA: 0.391 µg/mL
[13]
  Antibacterial Activity for MRSA: 0.391 µg/mL
[14]
  Antibacterial Activity for MRSA: 0.391 µg/mL
[15]
  Antibacterial Activity for MRSA: 0.098 µg/mL
[16]
  Antibacterial Activity for MRSA: 0.098 µg/mL
[17]
  Antibacterial Activity for MRSA: 0.195 µg/mL
[18]
  Antibacterial Activity for MRSA: 0.195 µg/mL
[19]
  Antibacterial Activity for MRSA: 0.391 µg/mL
